In one experiment the target is T1, HAT (Homo sapiens, UniProt O60235).
T1 construct: purchased R&D Systems
T1 sequence (O60235 1-418): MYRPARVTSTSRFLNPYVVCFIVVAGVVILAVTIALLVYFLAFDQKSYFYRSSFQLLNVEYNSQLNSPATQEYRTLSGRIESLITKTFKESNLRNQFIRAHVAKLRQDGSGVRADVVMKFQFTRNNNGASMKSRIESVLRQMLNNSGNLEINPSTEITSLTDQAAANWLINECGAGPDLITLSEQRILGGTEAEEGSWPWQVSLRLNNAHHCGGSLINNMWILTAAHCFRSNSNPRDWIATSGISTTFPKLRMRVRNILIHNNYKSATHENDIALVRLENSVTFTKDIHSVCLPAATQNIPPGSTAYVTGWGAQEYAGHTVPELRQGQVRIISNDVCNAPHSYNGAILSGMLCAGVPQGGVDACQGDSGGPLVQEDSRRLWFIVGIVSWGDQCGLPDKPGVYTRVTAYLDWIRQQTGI
Nature of the experiment: Enzyme kinetic determination of inhibition of HAT (Ki, Dixon method, fluorogenic substrate d-Cyclohexylalanin-Pro-Arg-7-Aminomethylcoumarin). The experiment is classed as biochemical. The settings on record: HAT (R&D Systems), Tris pH 9.5, room temperature. The source says: (§1) Die Hemmwirkung der Inhibitoren für HAT (R&D Systems) und TMPRSS2 (katalytische Domäne exprimiert in E. coli) wurden unter Verwendung chromogener Substrate ermittelt. Für HAT wurde d-Cyclohexylalanin-Pro-Arg-7-Aminomethylcoumarin und für TMPRSS2 d-Cyclohexylalanin-Gly-Arg-p-Nitroanilin als Substrat verwendet. Die Bestimmung wurde mit einem Fluoreszenz-Plattenreader Safire^2 der Firma Tecan (λEx = 380 nm, λEm = 460 nm) für HAT und mit einem UV/Vis Plattenreader iEMS Reader MF 1401 der Firma LABSYSTEMS für TMPRSS2 bei 405 nm durchgeführt. Die Messung erfolgte in Tris-Puffer (50 mM Tris pH 9.5, 0,05% Brij 58 und 1 mg/ml bovines serum Albumin für HAT und 50 mM Tris pH 8.0, 0,154 M NaCl für TMPRSS2) auf Mikrotiter Platten bei Raumtemperatur. Die Inhibitorlösungen geeigneter Konzentration wurden in DMSO hergestellt. Im Messansatz wurden zu 2 µl Inhibitorlösung unterschiedlicher Konzentration jeweils 158 µl Puffer und 20 µl Substratlösung geben, und danach die Reaktion durch Zugabe von 20 µl Enzymlösung gestartet. Jeder Inhibitor wurde mit drei verschiedenen Substratkonzentrationen vermessen (50 µM, 100 µM, 200 µM für HAT und 45 µM, 90 µM und 181 µM für TMPRSS2). Die Inhibitorkonzentration wurde mindestens um den Bereich einer Größenordnung variiert und jeweils die steady-state Geschwindigkeit bestimmt. Die Berechnung der Ki-Werte erfolgte mit Hilfe eines Computerprogramms nach der Methode von Dixon.

The next experiment deals with T2, TMPRSS2 (Homo sapiens, UniProt O15393).
T2 construct: TMPRSS2 (katalytische Domäne exprimiert in E. coli); made in house; host or cells: E. coli
Nature of the experiment: Enzyme kinetic determination of inhibition of TMPRSS2 (Ki, Dixon method, chromogenic substrate d-Cyclohexylalanin-Gly-Arg-p-Nitroanilin). The format is biochemical. The settings on record: TMPRSS2 catalytic domain expressed in E. coli, Tris pH 8.0, room temperature.
Text: as §1

In a further experiment the target is T3, HAT-Flag (Homo sapiens, UniProt O60235).
T3 construct: made in house; host or cells: MDCK-HAT cells (MDCK stably transfected with pcEFTet-On/NEO and pTRE2pur-HAT-FLAG, doxycycline-inducible); isolated with the FLAG Tagged Protein Immunoprecipitation Kit
T3 sequence (O60235 1-418): T1 sequence (O60235 1-418)
In words: Inhibition of affinity-purified HAT-Flag: cleavage of the substrate Boc-Leu-Gly-Arg-AMC. The experiment is classed as biochemical. The settings on record: 25 µM Boc-Leu-Gly-Arg-AMC, 2 h, 37° C, pH 7,4. The source says:
Die in MDCK-HAT-Zellen exprimierte Protease HAT besitzt zusätzlich ein C-terminales Flag-Epitop, welches die Affinitätsreinigung der Protease mit Hilfe von anti-FlagM2-Agarose (Sigma-Aldrich) ermöglicht. HAT-Flag liegt nach der Immunpräzipitation als aktive Protease vor. Die enzymatische Aktivität kann mit Hilfe des Fluoreszenzsubstrats Boc-Leu-Gly-Arg-AMC bestimmt werden.
Für Inhibitionsstudien wurde HAT-Flag zunächst mit Hilfe des FLAG®Tagged Protein Immunoprecipitation Kits aus MDCK-HAT-Zellen isoliert. Anschließend wurde die isolierte Protease mit 25 µM Boc-Leu-Gly-Arg-AMC in 50 mM Tris/HCl pH 7,4 in An- oder Abwesenheit der Inhibitoren (Endkonzentrationen 0,1 -10 µM) für 2 h bei 37° C inkubiert. Die Umsetzung des Substrates wurde mit Hilfe eines Fluoreszenz-Spektralphotomers bei 350 nm (Extinktion) sowie 460 nm (Emission) bestimmt. Als Kontrolle diente die Bestimmung der Proteaseaktivität in Abwesenheit eines Inhibitors (entspricht 0% Hemmung). Tabelle 2: Hemmwirkung synthetischer Serinproteasehemmstoffe auf die HAT-katalysierte Spaltung des Substrats Boc-Leu-Gly-Arg-AMC.

For experiment [1], the system named is Influenzavirus-Isolat A/Memphis/14/96 (H1N1). The experiment is classed as cell-based. The settings on record: Calu-3-Zellen (endogenous TMPRSS2), 24 h infection.

T2 sequence (O15393 256-492 limits assumed): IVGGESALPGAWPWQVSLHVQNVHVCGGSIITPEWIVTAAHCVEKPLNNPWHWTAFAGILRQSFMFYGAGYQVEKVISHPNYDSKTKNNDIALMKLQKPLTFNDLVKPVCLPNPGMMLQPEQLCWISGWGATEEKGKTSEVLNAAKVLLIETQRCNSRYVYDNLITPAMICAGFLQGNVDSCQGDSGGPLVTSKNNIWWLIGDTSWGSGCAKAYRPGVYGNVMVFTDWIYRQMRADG

Usually Ki stands for a measure of affinity in units of concentration, obtained from inhibition or displacement. Higher therefore signals a looser hold on the target. As for `N=C(N)NCCC[C@@H](NS(=O)(=O)Cc1ccccc1)C(=O)N1CCC[C@H]1C(=O)NCc1ccc(C(=N)N)cc1` [Inhibitor 1], the Ki at HAT stood at 19 nM; on TMPRSS2, 3 nM. The “Prozent Hemmung (%)” value is listed as 22,3% at HAT-Flag (Inhibitorkonzentration 0,1 µM), 70,7% on HAT-Flag (Inhibitorkonzentration 1 µM) and 93,1% on HAT-Flag (Inhibitorkonzentration 10 µM). Moreover, the “Reduktion der Virusausbreitung” value in experiment [1] was “konzentrationsabhängige Reduktion der Virusausbreitung”. `N=C(N)c1ccc(CNC(=O)CNC(=O)[C@@H](CCCN=C(N)N)NS(=O)(=O)Cc2ccccc2)cc1` [Inhibitor 2]: the affinity on HAT, expressed as Ki, was 279 nM.

On to `N=C(N)c1ccc(CNC(=O)[C@H](CO)NC(=O)[C@@H](CO)NS(=O)(=O)Cc2ccccc2)cc1` [Inhibitor 3], for which affinity on HAT was put at a Ki of 78 nM. For the same compound, the “Prozent Hemmung (%)” value on HAT-Flag (Inhibitorkonzentration 0,1 µM) is given as 29,5%; on HAT-Flag (Inhibitorkonzentration 1 µM), 47,1%; on HAT-Flag (Inhibitorkonzentration 10 µM), 80,3%. Moreover, the “Reduktion der Virusausbreitung” value in experiment [1] was “konzentrationsabhängige Reduktion der Virusausbreitung”. As to `N=C(N)c1ccc(CNC(=O)[C@H](CCCCNC(=O)OCc2ccccc2)NC(=O)[C@@H](CO)NS(=O)(=O)Cc2ccccc2)cc1` [Inhibitor 4], the Ki on HAT came out at 48 nM. Turning to `N=C(N)c1ccc(CNC(=O)[C@@H]2CCCN2C(=O)[C@@H](CC2CCCCC2)NS(=O)(=O)Cc2ccccc2)cc1` [Inhibitor 5], the results for the Ki on HAT and on TMPRSS2 were 77 nM and 81 nM, respectively. The results for the “Prozent Hemmung (%)” value at HAT-Flag (Inhibitorkonzentration 0,1 µM), on HAT-Flag (Inhibitorkonzentration 1 µM) and on HAT-Flag (Inhibitorkonzentration 10 µM) were 27%, 47,4% and 51,5%, respectively. `[H]/N=C(\N)c1ccc(CNC(=O)[C@@H]2CCCN2C(=O)[C@@H](Cc2ccccc2)NS(=O)(=O)Cc2ccccc2)cc1` [Inhibitor 6] displayed a Ki on HAT of 66 nM. On the same count and under the same terms, for `N=C(N)c1ccc(CNC(=O)[C@@H]2CCCN2C(=O)[C@@H](CCc2ccccc2)NS(=O)(=O)Cc2ccccc2)cc1` [Inhibitor 7] the value was 55 nM; for `N=C(N)c1ccc(CNC(=O)[C@@H]2CCCN2C(=O)[C@@H](CCCCNC(=O)OCc2ccccc2)NS(=O)(=O)Cc2ccccc2)cc1` [Inhibitor 8], 49 nM; for `N=C(N)c1ccc(CNC(=O)[C@@H]2CCCN2C(=O)[C@@H](CCCCN)NS(=O)(=O)Cc2ccccc2)cc1` [Inhibitor 9], 30 nM. The same measure, in the same setting: for `N=C(N)NCCCC[C@@H](NS(=O)(=O)Cc1ccccc1)C(=O)N1CCC[C@H]1C(=O)NCc1ccc(C(=N)N)cc1` [Inhibitor 10] the value was 13 nM; for `N=C(N)c1ccc(CNC(=O)[C@@H]2CCCN2C(=O)C(CCc2ccccn2)NS(=O)(=O)Cc2ccccc2)cc1` (stereo partly shown) [Inhibitor 11], 32 nM; for `N#Cc1ccc(C[C@@H](NS(=O)(=O)Cc2ccccc2)C(=O)N2CCC[C@H]2C(=O)NCc2ccc(C(=N)N)cc2)cc1` [Inhibitor 12], 210 nM. Regarding `CCCCCCCCCC(=O)NCCCC[C@H](NC(=O)[C@@H](CCCNC(=N)N)NS(=O)(=O)Cc1ccccc1)C(=O)NCc1ccc(C(=N)N)cc1` [Inhibitor 14], the Ki at HAT was 160 nM; at TMPRSS2, 8 nM. The compound `N=C(N)c1ccc(CNC(=O)CNC(=O)[C@@H](CO)NS(=O)(=O)Cc2ccccc2)cc1` [Inhibitor 15] came in with a Ki at HAT of 1840 nM. At HAT, `CCCCCCCCCC(=O)NCCCC[C@H](NC(=O)[C@@H](CC1CCCCC1)NS(=O)(=O)Cc1ccccc1)C(=O)NCc1ccc(C(=N)N)cc1` [Inhibitor 16] returned a Ki greater than 20000 nM.

Consider `N=C(N)c1ccc(CNC(=O)[C@H](CCCCNC(=O)OCc2ccccc2)NC(=O)[C@@H](CC2CCCCC2)NS(=O)(=O)Cc2ccccc2)cc1` [Inhibitor 17], for which the values for the Ki on HAT and at TMPRSS2 were 488 nM and 84 nM, respectively.

These data come from EP2435064B1, “USE OF HAT INHIBITORS AND TMPRSS2 INHIBITORS AS MEDICAMENTS” (Philipps-Universität Marburg, priority 2009, dated 2010).
